According to PMC12892976, “Alkylation-based optimization of antifungal FPPS inhibitors yields a potent, broad-spectrum lipophilic zoledronate derivative” (mBio, 2025):

How the values were obtained:
[1] = test system: Nannizzia nana; assay: checkerboard drug interaction (FICI, MICc); type: cell-based;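 also: simplified diagonal checkerboard screen pairing antifungals with FPPS inhibitors, FICI calculated under the Loewe additivity model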
Method: (§2) Drug interactions between antifungals and FPPS inhibitors were investigated using a simplified checkerboard diagonal screening method ([45]). […] FICIs were determined according to the Loewe additivity model ([17]).

[2] = test system: Aspergillus niger; assay: checkerboard drug interaction (FICI, MICc); type: cell-based;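 also: simplified diagonal checkerboard screen pairing antifungals with FPPS inhibitors, FICI calculated under the Loewe additivity model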
Method: as §2

[3] = test system: Trichophyton soudanense; assay: checkerboard drug interaction (FICI, MICc); type: cell-based;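 also: simplified diagonal checkerboard screen pairing antifungals with FPPS inhibitors, FICI computed under the Loewe additivity model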
Method: as §2

[4] = test system: Lomentospora prolificans; assay: MIC broth microdilution (CLSI); type: cell-based; conditions: Lomentospora prolificans 80-16-101-2445
Method: (§3) Antifungal susceptibility was determined by broth microdilution according to the CLSI guidelines described in M27-Ed4 ([16]).

[5] = test system: Cryptococcus deuterogattii biofilms; assay: biofilm XTT reduction assay (SIC80, SFICI); conditions: for SICc / SFICI: Cryptococcus deuterogattii
Method: Biofilms of Cryptococcus were seeded in DMEM, and all other species were seeded in RPMI-1640.

[6] = test system: Cryptococcus tetragattii; assay: MIC broth microdilution (CLSI); type: cell-based; conditions: Cryptococcus tetragattii WM779
Method: as §3

[7] = test system: Bacillus subtilis; assay: antibacterial MIC; type: cell-based
Source text: (§1) […]; Table S3). […]. […] […].

[8] = test system: Enterobacter aerogenes; assay: antibacterial MIC; type: cell-based; conditions: Klebsiella aerogenes
Source text: as §1

[9] = test system: Klebsiella pneumoniae; assay: antibacterial MIC; type: cell-based
Source text: as §1

[10] = test system: Candida auris; assay: checkerboard drug interaction (FICI, MICc); type: cell-based;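 also: simplified diagonal checkerboard screen pairing antifungals with FPPS inhibitors, with FICI computed under the Loewe additivity model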
Method: as §2

[11] = test system: Cryptococcus deneoformans; assay: MIC broth microdilution (CLSI); type: cell-based; conditions: Cryptococcus deneoformans JEC21
Method: as §3

[12] = test system: Fusarium oxysporum; assay: MIC broth microdilution (CLSI); type: cell-based; conditions: Fusarium oxysporum 07-200-3012
Method: as §3

[13] = test system: Candida dubliniensis; assay: checkerboard drug interaction (FICI, MICc); type: cell-based;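 also: simplified diagonal checkerboard screen pairing antifungals with FPPS inhibitors, FICI calculated under the Loewe additivity model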
Method: as §2

[14] = test system: Fusarium oxysporum; assay: checkerboard drug interaction (FICI, MICc); type: cell-based;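 also: simplified diagonal checkerboard screen pairing antifungals with FPPS inhibitors, FICI calculated under the Loewe additivity model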
Method: as §2

[15] = test system: Candida tropicalis; assay: checkerboard drug interaction (FICI, MICc); type: cell-based;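 also: simplified diagonal checkerboard screen of antifungal plus FPPS inhibitor combinations, with FICI computed by the Loewe additivity model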
Method: as §2

[16] = test system: Aspergillus frankstonensis; assay: checkerboard drug interaction (FICI, MICc);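 also: simplified diagonal checkerboard screen pairing antifungals with FPPS inhibitors, FICI calculated using the Loewe additivity model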
Method: as §2

[17] = test system: Candida tropicalis; assay: MIC broth microdilution (CLSI); type: cell-based; conditions: Candida tropicalis M230640
Method: as §3

[18] = test system: Candida parapsilosis; assay: checkerboard drug interaction (FICI, MICc); type: cell-based;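 also: simplified diagonal checkerboard screen pairing antifungals with FPPS inhibitors, with FICI computed under the Loewe additivity model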
Method: as §2

**Q.** How did the “bisphosphonate MICc” value ([1]; with FLC) turn out when `CCCCCCCCCCn1cc[n+](CC(O)(P(=O)(O)O)P(=O)(O)O)c1` [10-ZOL, Decyl-zoledronate] was run?
**A.** 0.5

**Q.** What about the “bisphosphonate MICc” value ([1]; with ITR) of the same compound?
**A.** 1

**Q.** What about the “bisphosphonate MICc” value ([1]; with KET) of the same compound?
**A.** 0.25

**Q.** What about the “bisphosphonate MICc” value ([1]; with VOR) of the same compound?
**A.** 0.125

**Q.** What about the FICI ([2]; 5FC:10-ZOL) of the same compound?
**A.** ≥4

**Q.** What about the FICI ([2]; AMB:10-ZOL) of the same compound?
**A.** 2.17

**Q.** And the FICI ([2]; CAS:10-ZOL)?
**A.** 1

**Q.** What about the “bisphosphonate MICc” value ([2]; with 5FC) of the same compound?
**A.** 1

**Q.** And the “bisphosphonate MICc” value ([2]; with AMB)?
**A.** 1

**Q.** What about the “bisphosphonate MICc” value ([2]; with CAS) of the same compound?
**A.** 2

**Q.** And the “bisphosphonate MICc” value ([2]; with FLC)?
**A.** 0.5

**Q.** What about the “bisphosphonate MICc” value ([2]; with ITR) of the same compound?
**A.** 1

**Q.** And the “bisphosphonate MICc” value ([2]; with KET)?
**A.** 2

**Q.** What about the “bisphosphonate MICc” value ([2]; with VOR) of the same compound?
**A.** 0.5

**Q.** What about the FICI ([3]; 5FC:10-ZOL) of the same compound?
**A.** 2

**Q.** And the FICI ([3]; FLC:10-ZOL)?
**A.** 0.28

**Q.** And the FICI ([3]; VOR:10-ZOL)?
**A.** 0.61

**Q.** And the “bisphosphonate MICc” value ([3]; with 5FC)?
**A.** 2

**Q.** And the “bisphosphonate MICc” value ([3]; with AMB)?
**A.** 0.25

**Q.** What about the “bisphosphonate MICc” value ([3]; with CAS) of the same compound?
**A.** 0.5

**Q.** What about the “bisphosphonate MICc” value ([3]; with FLC) of the same compound?
**A.** 0.5

**Q.** What about the “bisphosphonate MICc” value ([3]; with ITR) of the same compound?
**A.** 0.125

**Q.** And the “bisphosphonate MICc” value ([3]; with KET)?
**A.** 1

**Q.** And the “bisphosphonate MICc” value ([3]; with VOR)?
**A.** 0.25

**Q.** And the “MIC / MEC” value [4]?
**A.** 2 µg/mL

**Q.** And the SICc ([5]; FLC:10-ZOL combination)?
**A.** 32 µg/mL

**Q.** What about the SFICI ([5]; FLC:10-ZOL) of the same compound?
**A.** 1.00

**Q.** What about the SICc ([5]; ITR:10-ZOL combination) of the same compound?
**A.** 32 µg/mL

**Q.** What about the SFICI ([5]; ITR:10-ZOL) of the same compound?
**A.** 1.00

**Q.** And the SICc ([5]; KET:10-ZOL combination)?
**A.** 16 µg/mL

**Q.** And the SFICI ([5]; KET:10-ZOL)?
**A.** 0.38

**Q.** And the SIC80 ([5]; agent alone, Cryptococcus deuterogattii R265)?
**A.** 64 µg/mL

**Q.** What about the “MIC / MEC” value [6] of the same compound?
**A.** 0.5 µg/mL

**Q.** And the MIC [7]?
**A.** > 16 µg/mL

**Q.** What about the MIC [8] of the same compound?
**A.** 16 µg/mL

**Q.** And the MIC [9]?
**A.** 16 µg/mL

**Q.** What about the FICI ([10]; 5FC:10-ZOL) of the same compound?
**A.** 1.5

**Q.** And the FICI ([10]; FLC:10-ZOL)?
**A.** 0.5

**Q.** What about the “bisphosphonate MICc” value ([10]; with 5FC) of the same compound?
**A.** 1

**Q.** And the “bisphosphonate MICc” value ([10]; with AMB)?
**A.** 0.25

**Q.** What about the “bisphosphonate MICc” value ([10]; with CAS) of the same compound?
**A.** 0.5

**Q.** And the “bisphosphonate MICc” value ([10]; with FLC)?
**A.** 0.5

**Q.** What about the “bisphosphonate MICc” value ([10]; with ITR) of the same compound?
**A.** 0.125

**Q.** And the “bisphosphonate MICc” value ([10]; with KET)?
**A.** 1

**Q.** What about the “bisphosphonate MICc” value ([10]; with VOR) of the same compound?
**A.** 1

**Q.** And the “MIC / MEC” value [11]?
**A.** 1 µg/mL

**Q.** And the “MIC / MEC” value [12]?
**A.** 8 µg/mL

**Q.** What about the FICI ([13]; CAS:10-ZOL) of the same compound?
**A.** 1.18

**Q.** What about the FICI ([13]; KET:10-ZOL) of the same compound?
**A.** 0.43

**Q.** What about the FICI ([13]; VOR:10-ZOL) of the same compound?
**A.** 1.55

**Q.** What about the “bisphosphonate MICc” value ([13]; with 5FC) of the same compound?
**A.** 0.25

**Q.** What about the “bisphosphonate MICc” value ([13]; with AMB) of the same compound?
**A.** 0.125

**Q.** And the “bisphosphonate MICc” value ([13]; with CAS)?
**A.** 0.125

**Q.** And the “bisphosphonate MICc” value ([13]; with FLC)?
**A.** 0.25

**Q.** What about the “bisphosphonate MICc” value ([13]; with ITR) of the same compound?
**A.** 0.125

**Q.** And the “bisphosphonate MICc” value ([13]; with KET)?
**A.** 0.125

**Q.** And the “bisphosphonate MICc” value ([13]; with VOR)?
**A.** 1

**Q.** And the FICI ([14]; 5FC:10-ZOL)?
**A.** ≥4

**Q.** What about the FICI ([14]; AMB:10-ZOL) of the same compound?
**A.** 1.03

**Q.** And the FICI ([14]; CAS:10-ZOL)?
**A.** ≥4

**Q.** What about the FICI ([14]; VOR:10-ZOL) of the same compound?
**A.** 0.5

**Q.** And the “bisphosphonate MICc” value ([14]; with 5FC)?
**A.** 4

**Q.** And the “bisphosphonate MICc” value ([14]; with AMB)?
**A.** 0.25

**Q.** And the “bisphosphonate MICc” value ([14]; with CAS)?
**A.** 1

**Q.** And the “bisphosphonate MICc” value ([14]; with FLC)?
**A.** 1

**Q.** And the “bisphosphonate MICc” value ([14]; with ITR)?
**A.** 1

**Q.** What about the “bisphosphonate MICc” value ([14]; with KET) of the same compound?
**A.** 1

**Q.** What about the “bisphosphonate MICc” value ([14]; with VOR) of the same compound?
**A.** 2

**Q.** And the FICI ([15]; 5FC:10-ZOL)?
**A.** 1.5

**Q.** And the FICI ([15]; CAS:10-ZOL)?
**A.** ≥4

**Q.** What about the FICI ([15]; VOR:10-ZOL) of the same compound?
**A.** 0.5

**Q.** And the “bisphosphonate MICc” value ([15]; with 5FC)?
**A.** 1

**Q.** And the “bisphosphonate MICc” value ([15]; with AMB)?
**A.** 0.125

**Q.** And the “bisphosphonate MICc” value ([15]; with CAS)?
**A.** 1

**Q.** What about the “bisphosphonate MICc” value ([15]; with FLC) of the same compound?
**A.** 1

**Q.** And the “bisphosphonate MICc” value ([15]; with ITR)?
**A.** 0.125

**Q.** What about the “bisphosphonate MICc” value ([15]; with KET) of the same compound?
**A.** 0.25

**Q.** And the “bisphosphonate MICc” value ([15]; with VOR)?
**A.** 0.5

**Q.** And the FICI ([16]; 5FC:10-ZOL)?
**A.** 3

**Q.** And the FICI ([16]; CAS:10-ZOL)?
**A.** 1.09

**Q.** And the FICI ([16]; ITR:10-ZOL)?
**A.** 1

**Q.** And the FICI ([16]; VOR:10-ZOL)?
**A.** ≥4

**Q.** What about the “bisphosphonate MICc” value ([16]; with 5FC) of the same compound?
**A.** 1

**Q.** And the “bisphosphonate MICc” value ([16]; with AMB)?
**A.** 2

**Q.** And the “bisphosphonate MICc” value ([16]; with CAS)?
**A.** 0.125

**Q.** And the “bisphosphonate MICc” value ([16]; with FLC)?
**A.** 0.5

**Q.** What about the “bisphosphonate MICc” value ([16]; with ITR) of the same compound?
**A.** 0.5

**Q.** What about the “bisphosphonate MICc” value ([16]; with KET) of the same compound?
**A.** 0.5

**Q.** And the “bisphosphonate MICc” value ([16]; with VOR)?
**A.** 2

**Q.** What about the “MIC / MEC” value [17] of the same compound?
**A.** 2 µg/mL

**Q.** And the FICI ([18]; CAS:10-ZOL)?
**A.** 0.5

**Q.** What about the “bisphosphonate MICc” value ([18]; with 5FC) of the same compound?
**A.** 1

**Q.** And the “bisphosphonate MICc” value ([18]; with AMB)?
**A.** 0.125

**Q.** What about the “bisphosphonate MICc” value ([18]; with CAS) of the same compound?
**A.** 0.25

**Q.** What about the “bisphosphonate MICc” value ([18]; with FLC) of the same compound?
**A.** 0.25

**Q.** What about the “bisphosphonate MICc” value ([18]; with ITR) of the same compound?
**A.** 0.125

**Q.** What about the “bisphosphonate MICc” value ([18]; with KET) of the same compound?
**A.** 0.25

**Q.** And the “bisphosphonate MICc” value ([18]; with VOR)?
**A.** 0.25
